The source of these data is US20060189650A1, “Novel piperidine derivatives as modulators of chemokine receptor ccr5” (priority 2002, published 2006).

recombinant human CCR5 receptor, sequence (P51681 whole entry): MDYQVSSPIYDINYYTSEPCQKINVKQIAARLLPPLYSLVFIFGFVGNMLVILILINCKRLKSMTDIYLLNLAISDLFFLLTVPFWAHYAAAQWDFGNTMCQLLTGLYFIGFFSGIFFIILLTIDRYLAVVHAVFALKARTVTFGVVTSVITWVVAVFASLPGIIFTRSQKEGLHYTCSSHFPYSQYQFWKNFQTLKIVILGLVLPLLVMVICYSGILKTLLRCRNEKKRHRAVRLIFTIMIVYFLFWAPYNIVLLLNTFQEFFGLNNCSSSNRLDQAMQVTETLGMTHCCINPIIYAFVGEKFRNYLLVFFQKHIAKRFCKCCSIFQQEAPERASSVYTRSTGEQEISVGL

The target of the test is recombinant human CCR5 receptor (Homo sapiens, UniProt P51681). In words: MIP-1α radioligand binding assay (scintillation proximity, CHO cell membranes). As to conditions: negative log (base 10) of IC50, displacement of 0.1 nM iodinated MIP-1α; average if tested more than once. Here is the method:
The ability of compounds to inhibit the binding of MIP-1α was assessed by an in vitro radioligand binding assay. Membranes were prepared from Chinese hamster ovary cells which expressed the recombinant human CCR5 receptor. These membranes were incubated with 0.1 nM iodinated MIP-1α, scintillation proximity beads and various concentrations of the compounds of the invention in 96-well plates. The amount of iodinated MIP-1α bound to the receptor was determined by scintillation counting. Competition curves were obtained for compounds and the concentration of compound which displaced 50% of bound iodinated MIP-1α was calculated (IC50).
In Table XV the results are presented as Pic50 values. A Pic50 value is the negative log (to base 10) of the IC50 result, so an IC50 of 1 μM (that is 1×10^−6M) gives a Pic50 of 6. If a compound was tested more than once then the data below is an average of the probative tests results.
For `CS(=O)(=O)c1ccc(S(=O)(=O)CCC2CCN(CC[C@H](NC(=O)c3ccc(Cl)cc3)c3ccccc3)CC2)cc1` [Table IV Compound 2], the IC50 is 1.58 nM.

Take `CS(=O)(=O)c1ccc([C@@H](CCN2CCC(CCS(=O)(=O)c3ccc(S(C)(=O)=O)cc3)CC2)c2cc(F)cc(F)c2)cc1` [Table V Compound 7, 1-{(3R)-3-(3,5-difluorophenyl)-3-[4-(methylsulfonyl)phenyl]propyl}-4-(2-{[4-(methylsulfonyl)phenyl]sulfonyl}ethyl)piperidine]: the IC50 is 0.631 nM.

`Cn1nnc(-c2ccc(S(=O)(=O)CCC3CCN(CC[C@H](c4ccc(S(C)(=O)=O)cc4)c4cc(F)cc(F)c4)CC3)cc2)n1` [Table V Compound 19, 1-{(3R)-3-(3,5-difluorophenyl)-3-[4-(methylsulfonyl)phenyl]propyl}-4-(2-{[4-(2-methyl-2H-tetrazol-5-yl)phenyl]sulfonyl}ethyl)piperidine]: the 50% inhibitory concentration (IC50) is 2 nM.
